Data: the supplement of paper PMC10307832

Key:
Test in all cases: relative viability (nuclei count vs DMSO), 5 days (fraction); higher = more cells survive
[1] = compound: Cn1cc(-c2cnn3c(N)c(Br)c([C@@H]4CCCNC4)nc23)cn1 + O=C(CCCCCCC(=O)Nc1ccccc1)NO [Vorinostat] (partner 1 µM)
Method in brief: (§1)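 Lung cancer cell lines in 1536-well plates were dosed by pin tool the day after seeding, either with one drug alone or with a fixed anchor-drug dose plus five library-drug doses (not always all listed) in √10 steps. After 5 days, cells were fixed and their nuclei stained in one step (final 0.05% Triton X-100, 1% formaldehyde, 1 ug/ml Hoechst), then counted on 4× images. Relative viability is the nuclei count in treated wells divided by that in vehicle wells. Values are medians of duplicate plates.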

[2] = compound: Cn1cc(-c2cnn3c(N)c(Br)c([C@@H]4CCCNC4)nc23)cn1 + C[C@]1(O)C[C@@H](c2nc(-c3ccc4ccc(-c5ccccc5)nc4c3)c3c(N)nccn32)C1 [Linsitinib] (partner 1 µM)
Method in brief: as §1

[3] = compound: Cn1cc(-c2cnn3c(N)c(Br)c([C@@H]4CCCNC4)nc23)cn1 + CC1(C)CCC(c2ccc(Cl)cc2)=C(CN2CCN(c3ccc(C(=O)NS(=O)(=O)c4ccc(N[C@H](CCN5CCOCC5)CSc5ccccc5)c(S(=O)(=O)C(F)(F)F)c4)cc3)CC2)C1 [Navitoclax] (partner 0.5 µM)
Method in brief: as §1

[4] = compound: Cn1cc(-c2cnn3c(N)c(Br)c([C@@H]4CCCNC4)nc23)cn1 + Cc1nc(NC(=O)N2CCC[C@H]2C(N)=O)sc1-c1ccnc(C(C)(C)C(F)(F)F)c1 [Alpelisib] (partner 2 µM)
Method in brief: as §1

Row | Cell Line | relative viability ([1]; first compound 0.05 µM) | relative viability ([1]; first compound 0.1581 µM) | relative viability ([1]; first compound 0.5 µM) | relative viability ([1]; first compound 1.581 µM) | relative viability ([1]; first compound 5 µM) | relative viability ([2]; first compound 0.05 µM) | relative viability ([2]; first compound 0.1581 µM) | relative viability ([2]; first compound 0.5 µM) | relative viability ([2]; first compound 1.581 µM) | relative viability ([2]; first compound 5 µM) | relative viability ([3]; first compound 0.05 µM) | relative viability ([3]; first compound 0.1581 µM) | relative viability ([3]; first compound 0.5 µM) | relative viability ([3]; first compound 1.581 µM) | relative viability ([3]; first compound 5 µM) | relative viability ([4]; first compound 0.05 µM) | relative viability ([4]; first compound 0.1581 µM) | relative viability ([4]; first compound 0.5 µM) | relative viability ([4]; first compound 1.581 µM) | relative viability ([4]; first compound 5 µM)
1 | LU99A | 0.46 | 0.469 | 0.452 | 0.36 | 0.216 | 0.533 | 0.622 | 0.496 | 0.557 | 0.422 | 0.962 | 0.875 | 0.801 | 0.699 | 0.601 | 0.534 | 0.541 | 0.492 | 0.491 | 0.388
2 | NCI-H647 | 0.625 | 0.607 | 0.522 | 0.256 | 0.15 | 1.12 | 1.24 | 0.85 | 0.796 | 0.42 | 1.25 | 1.11 | 0.902 | 0.853 | 0.406 | 1.16 | 1 | 1.05 | 0.331 | 0.444
3 | A-427 | 0.817 | 0.915 | 0.843 | 0.816 | 0.406 | 1.12 | 1.15 | 1.06 | 1.06 | 1 | 1.06 | 1 | 0.9 | 0.953 | 0.733 | 1.11 | 1.05 | 1.15 | 0.977 | 1.01
4 | COR-L 105 | 0.921 | 0.723 | 0.756 | 0.526 | 0.616 | 0.898 | 0.719 | 0.89 | 0.878 | 0.645 | 0.742 | 0.693 | 0.649 | 0.713 | 0.454 | 0.962 | 1 | 0.978 | 0.734 | 0.572
5 | NCI-H441 | 0.759 | 0.896 | 0.721 | 0.429 | 0.326 | 0.802 | 0.346 | 0.461 | 0.56 | 0.563 | 0.534 | 0.857 | 0.671 |  | 0.696 | 0.859 | 1.15 | 0.856 |  | 0.852
6 | NCI-H2126 | 0.694 | 0.788 | 0.762 | 0.683 | 0.68 | 0.842 | 0.723 | 0.714 | 0.666 | 0.686 | 0.915 | 0.883 | 0.861 | 0.804 | 0.863 | 0.824 | 0.788 | 0.768 | 0.729 | 0.757
7 | HCC-44 | 1.08 | 1.13 | 1.22 | 1.08 | 1.12 | 0.685 | 0.872 | 0.821 | 0.65 | 0.631 | 0.94 | 1.05 | 1.23 | 0.916 | 1.18 | 0.876 | 0.899 | 0.759 | 0.747 | 0.786
8 | NCI-H460 | 0.926 | 1.1 | 0.245 | 0.405 | 0.111 | 0.611 | 0.68 | 0.728 | 0.217 | 0.183 | 1.04 | 1.32 | 0.972 | 0.749 | 0.448 | 0.59 | 0.459 | 0.509 | 0.155 | 0.0851
9 | SK-LU-1 | 0.92 | 0.631 | 0.407 | 0.369 | 0.281 | 1.13 |  | 0.465 | 0.318 | 0.255 | 0.717 |  | 0.254 | 0.188 | 0.186 | 1.19 |  | 0.463 | 0.339 | 0.248
10 | NCI-H322M | 0.871 | 0.831 | 0.754 | 0.626 | 0.394 | 0.86 | 0.943 | 0.889 | 0.864 | 0.828 | 1.08 | 1.24 | 1.18 | 1.2 | 1.19 | 0.765 | 0.799 | 0.863 | 0.756 | 0.678
11 | EKVX | 0.736 | 0.723 | 0.712 | 0.638 | 0.691 | 1.02 | 1.06 | 0.946 | 0.68 | 0.874 | 0.828 | 1.13 | 0.911 | 0.918 | 0.782 | 0.908 | 1.05 | 0.91 | 0.694 | 0.753
12 | NCI-H1734 | 0.788 | 0.75 | 0.653 | 0.586 | 0.348 | 0.942 | 0.932 | 0.901 | 0.778 | 0.744 | 0.885 | 0.906 | 0.918 | 0.57 | 0.733 | 0.708 | 0.695 | 0.626 | 0.596 | 0.58
13 | NCI-H520 | 0.681 | 0.676 | 0.702 | 0.467 | 0.446 | 0.991 | 0.939 | 0.931 | 0.733 | 0.561 | 1.21 | 1.01 | 0.966 | 1.13 | 0.883 | 0.86 | 0.887 | 0.763 | 0.64 | 0.785
14 | EPLC-272H | 0.571 | 0.275 | 0.239 | 0.266 | 0.15 | 1.26 | 1.18 | 1.24 | 1.25 | 1.12 | 1.2 | 1.1 | 1.2 | 0.966 | 0.969 | 0.93 | 0.902 | 1.01 | 0.956 | 0.824
15 | UMC-11 | 0.331 | 0.313 | 0.345 | 0.334 | 0.291 | 1.18 | 1.08 | 0.991 | 0.818 | 0.507 | 0.316 | 0.268 | 0.298 | 0.271 | 0.229 | 1.04 | 1.07 | 0.675 | 0.621 | 0.579
16 | NCI-H1993 | 0.803 | 0.873 | 0.921 | 0.713 | 0.636 | 0.718 | 0.69 |  | 0.672 | 0.739 | 0.793 | 0.898 |  | 0.873 | 0.831 | 0.632 | 0.7 |  | 0.66 | 0.708
17 | NCI-H596 | 0.517 | 0.602 | 0.624 | 0.356 | 0.455 | 1.07 | 1.11 | 1.01 | 0.986 | 1.16 | 1.01 | 1.02 | 1.13 | 0.847 | 0.904 | 0.939 | 0.498 | 0.47 | 0.494 | 0.478
